# Assay results published in ChEMBL document CHEMBL1201862, “PubChem BioAssay data set” (2004).
# Activity calls are given as the source filed them. Rule as the data show it, for most assays here: actives have a measured EC50 and inactives only a lower limit.
# System: not listed separately
# Assay: viability of uninfected HEp-2 cells – cell-based, HTS, cytotoxicity control for RSV inhibitor project, dose response (AID 2410)
# Type: functional
# Conditions: human respiratory syncytial virus
row,Structure (SMILES),CC50
1,COc1ccc(/C=C/C(=O)Nc2cccc(S(=O)(=O)NC3=NCCCCC3)c2)cc1,27.9 µM (active)
2,CCCCOc1ccc(-c2cn3ccccc3n2)cc1[N+](=O)[O-],38.7 µM (active)
3,CCN(CCCNC(=O)CNC(=O)c1nn(-c2ccc(OC)cc2)c(=O)c2ccccc12)c1cccc(C)c1,46 µM (active)
4,Cc1cc(O)c(NC(=O)c2cc([N+](=O)[O-])ccc2Cl)cc1C,23.3 µM (active)
5,CCCCC(=O)Nc1ccc(C(=O)OC2CCCCC2)cc1,22.8 µM (active)
6,CN1CCN(C(=O)CCCN2C(=O)/C(=C/c3ccc(Cl)cc3)SC2=S)CC1,13.5 µM (active)

# System: not listed separately
# Assay: NIH3T3 cell viability loss – ATP luminescence, mouse fibroblasts, counter-screen, dose response (AID 2010);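 also: cells exposed to compound for about 90 hours before reading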
# Type: functional, cell-based
# Conditions: NIH3T3
row,Structure (SMILES),EC50
1,Cc1ccc(OCC(=O)Nc2cc(S(=O)(=O)N3CCCCC3)ccc2N2CCN(C)CC2)c(C)c1,> 60 µM (not active)
2,CN1CCN(c2ccc(S(=O)(=O)N3CCCCC3)cc2NC(=O)COc2cccc(Cl)c2)CC1,> 30 µM (not active)
3,COc1ccccc1CN1CCCC(CNC(=O)c2cccc3ccccc23)C1 (configuration not stated),> 60 µM (not active)
4,CC(C)(C)n1nnnc1C(c1cccnc1)N1CCN(c2ccccc2)CC1 (configuration not stated),> 60 µM (not active)
5,Cc1nn(-c2ccc([N+](=O)[O-])cc2)c(O)c1/C=N/CCN1CCN(C(=O)c2ccc(Br)cc2)CC1,39.9 µM (active)
6,O=C(Nc1ccccc1N1CCN(C(=O)c2ccc(Cl)cc2)CC1)c1ccc(Br)cc1,> 60 µM (not active)
7,CCCSc1nsc(NC(=O)CCC)n1,> 60 µM (not active)
8,Cc1nc(N2CCN(Cc3ccccc3)CC2)nc2c1C(=O)CC(C)C2 (configuration not stated),> 60 µM (not active)
9,O=C(NCc1ccco1)C(c1ccccc1F)N(Cc1cccnc1)C(=O)Cn1nnc2ccccc21 (configuration not stated),> 60 µM (not active)
10,CCOC(=O)c1c(NC(=O)CSc2nnnn2-c2ccccc2OCC)sc2c1CC(C)(C)NC2(C)C,> 30 µM (not active)
11,Cc1ccc(N2C(=O)CC(Sc3nc4ccccc4o3)C2=O)cc1Cl (configuration not stated),8.27 µM (active)
12,Fc1ccc(CNc2nc(-c3cccnc3)nc3ccccc23)cc1,> 60 µM (not active)
13,C/C(=N\NC(=S)Nc1ccccc1C)c1cc2ccccc2o1,> 60 µM (not active)
14,CC(=O)NCCn1c(SCc2cc(F)ccc2F)nc2ccccc2c1=O,> 60 µM (not active)
15,COc1ccc(C(=O)C2CCCN(Cc3ccc4nonc4c3)C2)c(OC)c1 (configuration not stated),> 60 µM (not active)
16,CN(C)CCOCCOc1ccc(Cl)cc1Br,> 60 µM (inconclusive)

# System: Streptococcus
# Assay: GAS UMAA2166 growth inhibition – luminescence, BacTiterGlo, counter-screen for streptokinase expression inhibitor project, dose response (AID 1915);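 also: potency for reduction of bacterial viability or growth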
# Type: functional, organism-based
# Conditions: Streptococcus
row,Structure (SMILES),EC50
1,Cc1cccc(C(=O)NNC(=O)c2c(O)c3ccccc3n(C)c2=O)c1,9.81 µM (active)
2,Cc1nc(S)c2c(n1)-c1ccccc1CC21CCCCC1,3.57 µM (active)
3,Cc1cc(C)c2[nH]c(O)c(N=Nc3ccc(C(=O)O)cc3)c2c1,11.1 µM (active)
4,CSc1ccc(S(=O)(=O)NCC(=O)OCC(=O)N2CCCC2=O)cc1[N+](=O)[O-],> 150 µM (not active)
5,CCOc1ccccc1NC(=O)NCc1ccc2c(c1)OCO2,> 150 µM (not active)
6,CC1CCCC(C)N1c1nnc(NC(=O)c2cc(-c3ccc(Br)cc3)on2)s1 (configuration not stated),25.2 µM (active)
7,Cc1ccc(C(=O)OC2OC(=O)C(Cl)=C2N2CCOCC2)cc1 (configuration not stated),2.04 µM (active)
8,CC(C)CCn1c(=O)c(C(=O)N/N=C/c2cccc(F)c2)c(O)c2ccccc21,7.41 µM (active)
9,Cn1nc(-c2ccccc2)c(CSc2ccccc2Cl)c1Cl,> 150 µM (not active)
10,Cc1nc(NC(=O)c2ccc(Cl)cc2)sc1-c1csc(Nc2cccc(F)c2)n1,21.4 µM (active)
11,Cc1ccc(C)c(-c2nnc(NC(=O)CCS(=O)(=O)c3ccccc3)o2)c1,141 µM (active)
12,Cc1cc(N/N=C/c2cccc(Br)c2)nc2ccccc12,7.4 µM (active)
13,CCOC(=O)C1CCN(C2=C(NS(=O)(=O)c3ccc(Cl)cc3)C(=O)c3ccccc3C2=O)CC1,> 150 µM (not active)
14,N#C/C(=N\Nc1ccc(S(=O)(=O)N2CCOCC2)cc1)C(N)=S,> 150 µM (not active)
15,COc1ccc(-n2nc3cc(C)c(NC(=O)C(C)C)cc3n2)cc1,> 150 µM (not active)
16,COc1ccc(C(=O)Nc2ccccc2-c2nnn(CC(=O)Nc3ccc4c(c3)OCCO4)n2)cc1,> 150 µM (inconclusive)
17,Clc1ccccc1Sc1ccc(-c2ccccn2)s1,> 150 µM (not active)
18,c1ccc(Nc2nc3ccccc3[nH]2)nc1,> 150 µM (not active)
19,Cc1ccc2sc(NNC(=O)c3cc(-c4cccs4)nc4ccccc34)nc2c1C,1.48 µM (active)

# System: not listed separately
# Assay: Trypanosoma cruzi growth suppression in host cells – NIH3T3 host cells, beta-gal luminescence, confirmation (AID 2044);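 also: intracellular parasites grown in NIH/3T3 mouse fibroblasts as host cells; luminescent beta-galactosidase reporter signal from transgenic T. cruzi replicating inside host cells; inhibitors lower the luminescence signal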
# Type: functional, cell-based
# Conditions: not given
row,Structure (SMILES),EC50
1,Cc1ccc(OCC(=O)Nc2cc(S(=O)(=O)N3CCCCC3)ccc2N2CCN(C)CC2)c(C)c1,0.171 µM (active)
2,CN1CCN(c2ccc(S(=O)(=O)N3CCCCC3)cc2NC(=O)COc2cccc(Cl)c2)CC1,0.629 µM (active)
3,COc1ccccc1CN1CCCC(CNC(=O)c2cccc3ccccc23)C1 (configuration not stated),0.679 µM (active)
4,CC(C)(C)n1nnnc1C(c1cccnc1)N1CCN(c2ccccc2)CC1 (configuration not stated),0.666 µM (active)
5,Cc1nn(-c2ccc([N+](=O)[O-])cc2)c(O)c1/C=N/CCN1CCN(C(=O)c2ccc(Br)cc2)CC1,10.7 µM (active)
6,O=C(Nc1ccccc1N1CCN(C(=O)c2ccc(Cl)cc2)CC1)c1ccc(Br)cc1,1.29 µM (active)
7,CCCSc1nsc(NC(=O)CCC)n1,1.04 µM (active)
8,Cc1nc(N2CCN(Cc3ccccc3)CC2)nc2c1C(=O)CC(C)C2 (configuration not stated),1.42 µM (active)
9,O=C(NCc1ccco1)C(c1ccccc1F)N(Cc1cccnc1)C(=O)Cn1nnc2ccccc21 (configuration not stated),1.68 µM (active)
10,CCOC(=O)c1c(NC(=O)CSc2nnnn2-c2ccccc2OCC)sc2c1CC(C)(C)NC2(C)C,1.31 µM (active)
11,Cc1ccc(N2C(=O)CC(Sc3nc4ccccc4o3)C2=O)cc1Cl (configuration not stated),2.16 µM (active)
12,Fc1ccc(CNc2nc(-c3cccnc3)nc3ccccc23)cc1,0.67 µM (active)
13,C/C(=N\NC(=S)Nc1ccccc1C)c1cc2ccccc2o1,2.18 µM (active)
14,CC(=O)NCCn1c(SCc2cc(F)ccc2F)nc2ccccc2c1=O,0.487 µM (active)
15,COc1ccc(C(=O)C2CCCN(Cc3ccc4nonc4c3)C2)c(OC)c1 (configuration not stated),0.97 µM (active)
16,CN(C)CCOCCOc1ccc(Cl)cc1Br,0.937 µM (active)

# Target: T1, Streptokinase A (Streptococcus pyogenes serotype M1, UniProt P10520)
# T1 sequence (P10520 whole entry): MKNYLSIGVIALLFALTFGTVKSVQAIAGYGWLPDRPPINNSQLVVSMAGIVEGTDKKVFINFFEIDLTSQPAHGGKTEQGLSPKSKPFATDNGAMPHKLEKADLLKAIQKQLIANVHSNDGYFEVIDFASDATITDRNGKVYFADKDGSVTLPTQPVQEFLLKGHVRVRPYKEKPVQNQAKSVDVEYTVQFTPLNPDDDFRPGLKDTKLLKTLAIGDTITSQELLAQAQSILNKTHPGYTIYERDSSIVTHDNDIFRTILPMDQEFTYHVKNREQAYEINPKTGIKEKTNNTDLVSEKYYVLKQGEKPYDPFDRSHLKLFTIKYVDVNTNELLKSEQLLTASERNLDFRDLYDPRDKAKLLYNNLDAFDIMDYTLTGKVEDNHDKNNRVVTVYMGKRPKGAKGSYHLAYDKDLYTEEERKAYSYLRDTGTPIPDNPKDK
# Assay: viability-normalized secreted streptokinase activity reduction – plasminogen activation absorbance, OD405, dose response (AID 1914);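 also: secreted streptokinase activity via plasminogen activation per viability signal from cell pellet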
# Type: functional, Streptococcus pyogenes M1 GAS
# Conditions: not given
row,Structure (SMILES),EC50
1,Cc1cccc(C(=O)NNC(=O)c2c(O)c3ccccc3n(C)c2=O)c1,> 150 µM (not active)
2,Cc1cc(C)c2[nH]c(O)c(N=Nc3ccc(C(=O)O)cc3)c2c1,> 150 µM (not active)
3,CSc1ccc(S(=O)(=O)NCC(=O)OCC(=O)N2CCCC2=O)cc1[N+](=O)[O-],> 150 µM (not active)
4,CCOc1ccccc1NC(=O)NCc1ccc2c(c1)OCO2,> 150 µM (not active)
5,CC1CCCC(C)N1c1nnc(NC(=O)c2cc(-c3ccc(Br)cc3)on2)s1 (configuration not stated),> 150 µM (not active)
6,Cn1nc(-c2ccccc2)c(CSc2ccccc2Cl)c1Cl,22.8 µM (active)
7,Cc1nc(NC(=O)c2ccc(Cl)cc2)sc1-c1csc(Nc2cccc(F)c2)n1,> 150 µM (not active)
8,Cc1ccc(C)c(-c2nnc(NC(=O)CCS(=O)(=O)c3ccccc3)o2)c1,> 150 µM (not active)
9,Cc1cc(N/N=C/c2cccc(Br)c2)nc2ccccc12,> 150 µM (not active)
10,CCOC(=O)C1CCN(C2=C(NS(=O)(=O)c3ccc(Cl)cc3)C(=O)c3ccccc3C2=O)CC1,27 µM (active)
11,N#C/C(=N\Nc1ccc(S(=O)(=O)N2CCOCC2)cc1)C(N)=S,> 150 µM (not active)
12,COc1ccc(-n2nc3cc(C)c(NC(=O)C(C)C)cc3n2)cc1,> 150 µM (not active)
13,COc1ccc(C(=O)Nc2ccccc2-c2nnn(CC(=O)Nc3ccc4c(c3)OCCO4)n2)cc1,> 150 µM (not active)
14,Clc1ccccc1Sc1ccc(-c2ccccn2)s1,> 150 µM (not active)
15,c1ccc(Nc2nc3ccccc3[nH]2)nc1,> 150 µM (not active)

# Target: Cytochrome P450 3A4 (Homo sapiens, UniProt P08684);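 also: CYP3A4 tested as one member of a cytochrome P450 panel screen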
# Conditions: not given
# Cytochrome P450 3A4, sequence (P08684 whole entry): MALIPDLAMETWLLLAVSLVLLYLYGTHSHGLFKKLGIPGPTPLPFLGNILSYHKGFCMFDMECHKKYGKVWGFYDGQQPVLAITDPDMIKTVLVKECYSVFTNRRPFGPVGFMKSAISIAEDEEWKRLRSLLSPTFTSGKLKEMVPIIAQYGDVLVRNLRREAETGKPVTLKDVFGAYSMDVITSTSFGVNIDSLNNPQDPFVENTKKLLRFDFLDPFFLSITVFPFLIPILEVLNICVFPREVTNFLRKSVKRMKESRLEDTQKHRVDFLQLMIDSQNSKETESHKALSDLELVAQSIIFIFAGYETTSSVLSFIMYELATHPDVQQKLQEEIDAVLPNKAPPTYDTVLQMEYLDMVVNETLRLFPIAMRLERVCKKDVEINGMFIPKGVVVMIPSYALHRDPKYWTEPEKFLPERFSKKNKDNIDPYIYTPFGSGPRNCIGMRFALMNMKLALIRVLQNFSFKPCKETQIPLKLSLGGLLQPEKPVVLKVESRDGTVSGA
row,Structure (SMILES),AC50
1,COc1ccccc1CN1CCCC2(CCN(C(=O)c3ccco3)CC2)C1,25.1 µM (inconclusive)
2,COc1ccc(-n2c(=O)c(-c3cccs3)nc3cnc(Nc4cccc(OC)c4)nc32)cc1,1.58 µM (inconclusive)
3,NCCCP(=O)(O)O,0.158 µM (inconclusive)
4,COc1cc2c3cc1Oc1c(OC)c(OC)cc4c1[C@@H](Cc1ccc(O)c(c1)Oc1ccc(cc1)C[C@@H]3N(C)CC2)CN(C)C4,2.51 µM (inconclusive)
5,CNC(=O)c1sc(-c2cccnc2)nc1C,31.6 µM (inconclusive)
6,Cc1cnc(CNc2ccnc(-c3c(C)noc3C)n2)cn1,10 µM (inconclusive)
7,c1ccc(-c2cccc(N3CC[C@@]4(CCCNC4)C3)c2)cc1,15.8 µM (inconclusive)
8,COC(=O)c1nn(-c2ccc(OC)cc2)c(=O)cc1Oc1cccc(Cl)c1,39.8 µM (inconclusive)
9,N#Cc1ccccc1-c1ccc2ncnc(N3CCNCC3)c2c1,31.6 µM (inconclusive)
10,CC[C@H]1C2=C3C(CC[C@H]4C(OCc5ccc(F)cc5C(F)(F)F)OC[C@](C)([C@@H]34)N(C(=O)OC(C)(C)C)C2)C(COC)C1COC (some centres not stated),10 µM (inconclusive)
11,N[C@@H](Cc1c[nH]cn1)C(=O)O [HISTIDINE],0.794 µM (inconclusive)

# System: Streptococcus sp. 'group A'
# Assay: Streptococcus pyogenes SK(-)GAS viability under kanamycin – luminescence, BacTiterGlo, confirmation, counter-screen for streptokinase expression inhibitor project, dose response (AID 1900)
# Type: functional, organism-based
# Conditions: Streptococcus sp. 'group A'
row,Structure (SMILES),EC50
1,Cc1cccc(C(=O)NNC(=O)c2c(O)c3ccccc3n(C)c2=O)c1,4.62 µM (active)
2,Cc1nc(S)c2c(n1)-c1ccccc1CC21CCCCC1,1.15 µM (active)
3,Cc1cc(C)c2[nH]c(O)c(N=Nc3ccc(C(=O)O)cc3)c2c1,4.53 µM (active)
4,CSc1ccc(S(=O)(=O)NCC(=O)OCC(=O)N2CCCC2=O)cc1[N+](=O)[O-],4.7 µM (active)
5,CCOc1ccccc1NC(=O)NCc1ccc2c(c1)OCO2,> 150 µM (not active)
6,CC1CCCC(C)N1c1nnc(NC(=O)c2cc(-c3ccc(Br)cc3)on2)s1 (configuration not stated),2.33 µM (active)
7,Cc1ccc(C(=O)OC2OC(=O)C(Cl)=C2N2CCOCC2)cc1 (configuration not stated),0.884 µM (active)
8,CC(C)CCn1c(=O)c(C(=O)N/N=C/c2cccc(F)c2)c(O)c2ccccc21,2.24 µM (active)
9,Cn1nc(-c2ccccc2)c(CSc2ccccc2Cl)c1Cl,22.8 µM (active)
10,Cc1nc(NC(=O)c2ccc(Cl)cc2)sc1-c1csc(Nc2cccc(F)c2)n1,1.67 µM (active)
11,Cc1ccc(C)c(-c2nnc(NC(=O)CCS(=O)(=O)c3ccccc3)o2)c1,8.03 µM (active)
12,Cc1cc(N/N=C/c2cccc(Br)c2)nc2ccccc12,7.14 µM (active)
13,CCOC(=O)C1CCN(C2=C(NS(=O)(=O)c3ccc(Cl)cc3)C(=O)c3ccccc3C2=O)CC1,8.11 µM (active)
14,N#C/C(=N\Nc1ccc(S(=O)(=O)N2CCOCC2)cc1)C(N)=S,> 150 µM (not active)
15,COc1ccc(-n2nc3cc(C)c(NC(=O)C(C)C)cc3n2)cc1,> 150 µM (not active)
16,COc1ccc(C(=O)Nc2ccccc2-c2nnn(CC(=O)Nc3ccc4c(c3)OCCO4)n2)cc1,41.1 µM (active)
17,Clc1ccccc1Sc1ccc(-c2ccccn2)s1,17.6 µM (active)
18,c1ccc(Nc2nc3ccccc3[nH]2)nc1,3.59 µM (active)
19,Cc1ccc2sc(NNC(=O)c3cc(-c4cccs4)nc4ccccc34)nc2c1C,0.758 µM (active)
